The subject of test [1] is MDA-MB-231. Nature of the test: drug sensitivity score (DSS); higher = more sensitive; extreme values may be limits of the assay. Conditions: incubation time: 72 h. As for the experimental part:
(§1)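 MDA-MB-231 breast cancer cells were transfected with siBRCA1 or non-targeting siControl, then seeded 24 h later at 4000 cells/well in 384-well plates holding 198 drugs at 5 concentrations. Viability was read by CellTiter-Blue after 72 h at 37 °C. Dose-response curves were fitted in Dotmatics to give IC50 and a drug sensitivity score (DSS: area under the curve relative to the area between the 10% threshold and 100% inhibition, normalised by the log of the top response). The dose range is not stated. IC50 values of 8333.3 or 4166.7 nM mark no response (top dose), and 0.8333 nM is the lower limit.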

For test [2], the system named is MDA-MB-231. Conditions: incubation time: 72 h. The protocol: as §1
Where [3] appears, read: siRNA: siControl (non-targeting).

SMILES strings stand for the structures. Some results are limits rather than exact numbers.

For `Cc1ccc(NC(=O)c2ccc(CN3CCN(C)CC3)cc2)cc1Nc1nccc(-c2cccnc2)n1` [Imatinib], the drug sensitivity score with MDA-MB-231 [1] (siRNA: siBRCA1) and with MDA-MB-231 [1] (setting [3]) was 0 in each case. In addition, the “IC50 of cell viability” value in the test on MDA-MB-231 [2] (siRNA: siBRCA1) and in the test on MDA-MB-231 [2] (setting [3]) was > 4170 nM each time.
On to `COc1cc2c(cc1O)CC[C@@H]1[C@@H]2CC[C@]2(C)[C@@H](O)CC[C@@H]12` [2-methoxyestradiol], for which the drug sensitivity score in the test on MDA-MB-231 [1] (siRNA: siBRCA1) was determined as 6.82; with MDA-MB-231 [1] (setting [3]), 8.29. Further, the results for the “IC50 of cell viability” value with MDA-MB-231 [2] (siRNA: siBRCA1) and in the test with MDA-MB-231 [2] (setting [3]) were 1230 nM and 794 nM, respectively.
With `Cc1c(N)nc([C@H](CC(N)=O)NC[C@H](N)C(N)=O)nc1C(=O)N[C@H](C(=O)N[C@H](C)[C@@H](O)[C@H](C)C(=O)N[C@H](C(=O)NCCc1nc(-c2nc(C(=O)NCCC[S+](C)C)cs2)cs1)[C@@H](C)O)[C@@H](OC1OC(CO)C(O)C(O)C1OC1OC(CO)C(O)C(OC(N)=O)C1O)c1cnc[nH]1` (stereo not given in full) [Bleomycin], the drug sensitivity score in the test on MDA-MB-231 [1] (siRNA: siBRCA1) stood at 0; with MDA-MB-231 [1] (setting [3]), 3.28. The figures for the “IC50 of cell viability” value with MDA-MB-231 [2] (siRNA: siBRCA1) and in the test on MDA-MB-231 [2] (setting [3]) were > 4170 nM and 125 nM, respectively.
`COc1c(C)cnc(Cn2cnc3c(Cl)nc(N)nc32)c1C` [BIIB021]: the drug sensitivity score is 8.95 in the test on MDA-MB-231 [1] (siRNA: siBRCA1) and 9.35 in the test with MDA-MB-231 [1] (setting [3]). For the same molecule, the “IC50 of cell viability” value was 869 nM with MDA-MB-231 [2] (siRNA: siBRCA1) and 1290 nM in the test with MDA-MB-231 [2] (setting [3]).
On the same counts, the results for `COc1cc(Nc2ncc3c(n2)-c2ccc(Cl)cc2C(c2c(F)cccc2OC)=NC3)ccc1C(=O)O` [MLN8237 (Alisertib)] are 4.61, 8.75, 917 nM and 358 nM.
On to `CCC1(c2ccc(N)cc2)CCC(=O)NC1=O` (stereo not given) [Aminoglutethimide], for which the drug sensitivity score in the test on MDA-MB-231 [1] (siRNA: siBRCA1) and with MDA-MB-231 [1] (setting [3]) was 0 in each case. The “IC50 of cell viability” value in the test with MDA-MB-231 [2] (siRNA: siBRCA1) and with MDA-MB-231 [2] (setting [3]) was > 4170 nM throughout.
For `CC1(C)CNc2cc(NC(=O)c3cccnc3NCc3ccncc3)ccc21` [Motesanib], the drug sensitivity score in the test on MDA-MB-231 [1] (siRNA: siBRCA1) and with MDA-MB-231 [1] (setting [3]) was 0 throughout. Further, the “IC50 of cell viability” value with MDA-MB-231 [2] (siRNA: siBRCA1) and in the test on MDA-MB-231 [2] (setting [3]) was > 4170 nM each time.
Consider `O=NN(CCCl)C(=O)NCCCl` [Carmustine], for which the drug sensitivity score with MDA-MB-231 [1] (siRNA: siBRCA1) and with MDA-MB-231 [1] (setting [3]) was 0 each time. Also, the “IC50 of cell viability” value in the test on MDA-MB-231 [2] (siRNA: siBRCA1) and in the test on MDA-MB-231 [2] (setting [3]) was > 4170 nM throughout.
As for `O=NN(CCCl)C(=O)NC1CCCCC1` [Lomustine], the drug sensitivity score with MDA-MB-231 [1] (siRNA: siBRCA1) and in the test with MDA-MB-231 [1] (setting [3]) was 0 in each case. Further, the “IC50 of cell viability” value in the test with MDA-MB-231 [2] (siRNA: siBRCA1) and with MDA-MB-231 [2] (setting [3]) was > 4170 nM in each case.
Turning to `C[C@]1(c2nc3c(C(N)=O)cccc3[nH]2)CCCN1` [Veliparib], the drug sensitivity score in the test on MDA-MB-231 [1] (siRNA: siBRCA1) and with MDA-MB-231 [1] (setting [3]) was 0 in each case. Moreover, the “IC50 of cell viability” value with MDA-MB-231 [2] (siRNA: siBRCA1) and in the test with MDA-MB-231 [2] (setting [3]) was > 4170 nM each time.
Consider `Cc1[nH]c2ccccc2c1CCNCc1ccc(/C=C/C(=O)NO)cc1` [Panobinostat], for which the drug sensitivity score with MDA-MB-231 [1] (siRNA: siBRCA1) worked out at 28.7; in the test on MDA-MB-231 [1] (setting [3]), 29.6. Further, the “IC50 of cell viability” value with MDA-MB-231 [2] (siRNA: siBRCA1) worked out at 31.7 nM; with MDA-MB-231 [2] (setting [3]), 27.5 nM.
For the molecule `CN(C)C/C=C/C(=O)Nc1cc2c(Nc3ccc(F)c(Cl)c3)ncnc2cc1O[C@H]1CCOC1` [Afatinib], the drug sensitivity score in the test with MDA-MB-231 [1] (siRNA: siBRCA1) stood at 4.43; in the test on MDA-MB-231 [1] (setting [3]), 8.65. For the same molecule, the “IC50 of cell viability” value was 3350 nM with MDA-MB-231 [2] (siRNA: siBRCA1) and 1680 nM with MDA-MB-231 [2] (setting [3]).
Consider `CCC/C=C/C=C/C(=O)O[C@H]1/C(=C/C(=O)OC)C[C@H]2C[C@H]([C@@H](C)O)OC(=O)C[C@H](O)C[C@@H]3C[C@H](OC(C)=O)C(C)(C)[C@](O)(C[C@@H]4C/C(=C/C(=O)OC)C[C@H](/C=C/C(C)(C)[C@]1(O)O2)O4)O3` [Bryostatin 1], for which the drug sensitivity score with MDA-MB-231 [1] (siRNA: siBRCA1) and in the test on MDA-MB-231 [1] (setting [3]) was 0 each time. The “IC50 of cell viability” value in the test with MDA-MB-231 [2] (siRNA: siBRCA1) and in the test on MDA-MB-231 [2] (setting [3]) was 83.3 nM in each case.
Turning to `CC[C@H](Nc1ncnc2[nH]cnc12)c1nc2cccc(F)c2c(=O)n1-c1ccccc1` [CAL-101], the results for the drug sensitivity score with MDA-MB-231 [1] (siRNA: siBRCA1) and in the test with MDA-MB-231 [1] (setting [3]) were 0 and 2.02, respectively. The figures for the “IC50 of cell viability” value in the test on MDA-MB-231 [2] (siRNA: siBRCA1) and in the test on MDA-MB-231 [2] (setting [3]) were > 4170 nM and 1090 nM, respectively.
`c1ccc([C@H]2CN3CCSC3=N2)cc1` [Levamisole]: the drug sensitivity score in the test on MDA-MB-231 [1] (siRNA: siBRCA1) was 0.142; with MDA-MB-231 [1] (setting [3]), 0. Further, the results for the “IC50 of cell viability” value in the test with MDA-MB-231 [2] (siRNA: siBRCA1) and in the test on MDA-MB-231 [2] (setting [3]) were 3160 nM and > 4170 nM, respectively.

The values above are taken from the supplement of paper PMC4649846.
